Data as given in BindingDB's records for doi:10.1016/s0960-894x(00)00664-8 (Kyoto University, 2001).
Where a SMILES comes first, the peptide text is derived from it. Bridges are numbered along the chain shown (N, C = ends). [ ]: non-standard residue; d: D form. Gly(2-naphthyl) = N[C@H](C(=O)O)c1ccc2ccccc2c1; Cit = NC(=O)NCCC[C@H](N)C(=O)O

Assay: Effective concentration for antagonistic activity by inhibition of T-tropic strain of HIV-1 through its specific binding to a chemokine receptor

Structure (SMILES): NCCCC[C@@H]1NC(=O)[C@H](CCCN=C(N)N)NC(=O)[C@H](Cc2ccc(O)cc2)NC(=O)[C@@H](NC(=O)[C@@H](NC(=O)[C@H](CCCN=C(N)N)NC(=O)[C@@H](N)CCCN=C(N)N)c2ccc3ccccc3c2)CSSC[C@@H](C(=O)N[C@@H](CCCN=C(N)N)C(=O)O)NC(=O)[C@H](CCCNC(N)=O)NC(=O)[C@H](CCCN=C(N)N)NC(=O)[C@H](Cc2ccc(O)cc2)NC(=O)[C@@H]2CCCN2C(=O)[C@@H](CCCCN)NC1=O [Compound T140] (H-RR[Gly(2-naphthyl)]CYRK[dK]PYR[Cit]CR-OH; disulfide 4-13)
- EC50: 0.18 nM
